Laboratory results as given in patent publication EP4635500A1, “THERAPEUTIC AGENT FOR BACTERIAL INFECTION” (Sumitomo Pharma Co., Ltd., priority 2022, dated 2024).
Values after ≈ are worked out from the molar mass of the structure shown. Like-named read-outs stand apart in the source and are kept apart here.

How the values were obtained:
Enterobacterales = assay: MIC, broth microdilution, CDC/FDA Antibiotic Resistance Isolate Bank (Example 7, Tables 8, 11, 12); assay type: cell-based; settings: for MIC: read-out: MIC
A. baumannii = assay: MIC, broth microdilution, CDC/FDA Antibiotic Resistance Isolate Bank (Example 7, Tables 9, 13, 14); assay type: cell-based, Acinetobacter baumannii; settings: for MIC: read-out: MIC
[1] = MIC distribution, metallo-β-lactamase-producing A. baumannii, inhibitor µg/mL in parentheses

C[C@H]1COc2c(N3CCN(C)CC3)c(F)cc3c(=O)c(C(=O)O)cn1c23 [Levofloxacin, levofloxacin]
MIC (Enterobacterales; Klebsiella pneumoniae, KUB No. 5640, AR Bank # 143): 64 µg/mL (≈ 177 µM) | MIC (Enterobacterales; Klebsiella pneumoniae, KUB No. 5642, AR Bank # 145): 32 µg/mL (≈ 88.6 µM) | MIC (Enterobacterales; Klebsiella pneumoniae, KUB No. 5643, AR Bank # 146): 64 µg/mL (≈ 177 µM) | MIC (Enterobacterales; Klebsiella pneumoniae, KUB No. 5645, AR Bank # 148): 64 µg/mL (≈ 177 µM) | MIC (Enterobacterales; Klebsiella pneumoniae, KUB No. 5649, AR Bank # 152): 32 µg/mL (≈ 88.6 µM) | MIC (Enterobacterales; Klebsiella pneumoniae, KUB No. 5650, AR Bank # 153): > 64 µg/mL | MIC (Enterobacterales; Klebsiella pneumoniae, KUB No. 5655, AR Bank # 158): 16 µg/mL (≈ 44.3 µM) | MIC (Enterobacterales; Klebsiella pneumoniae, KUB No. 5657, AR Bank # 160): 0.12 µg/mL (≈ 0.332 µM) | MIC (Enterobacterales; Klebsiella pneumoniae, KUB No. 5757, AR Bank # 361): 64 µg/mL (≈ 177 µM) | MIC (Enterobacterales; Klebsiella pneumoniae, KUB No. 5759, AR Bank # 363): 64 µg/mL (≈ 177 µM) | MIC (Enterobacterales; Klebsiella pneumoniae, KUB No. 5760, AR Bank # 364): 64 µg/mL (≈ 177 µM) | MIC (Enterobacterales; Klebsiella pneumoniae, KUB No. 5772, AR Bank # 376): 16 µg/mL (≈ 44.3 µM) | MIC (Enterobacterales; Klebsiella pneumoniae, Klebsiella pneumoniae KUB No. 5784, AR Bank #438): 64 µg/mL (≈ 177 µM) | MIC (Enterobacterales; Klebsiella pneumoniae, Klebsiella pneumoniae KUB No. 5797, AR Bank #453): 64 µg/mL (≈ 177 µM) | MIC (Enterobacterales; Klebsiella pneumoniae, Klebsiella pneumoniae KUB No. 5809, AR Bank #504): 0.5 µg/mL (≈ 1.38 µM) | MIC (Enterobacterales; Klebsiella pneumoniae, Klebsiella pneumoniae KUB No. 5810, AR Bank #505): 1 µg/mL (≈ 2.77 µM) | MIC (Enterobacterales; Klebsiella pneumoniae, Klebsiella pneumoniae KUB No. 5811, AR Bank #506): 4 µg/mL (≈ 11.1 µM) | MIC (Enterobacterales; Klebsiella pneumoniae, Klebsiella pneumoniae KUB No. 5812, AR Bank #507): > 64 µg/mL | MIC (Enterobacterales; Klebsiella pneumoniae, Klebsiella pneumoniae KUB No. 5827, AR Bank #522): 32 µg/mL (≈ 88.6 µM) | MIC (Enterobacterales; Klebsiella pneumoniae, Klebsiella pneumoniae KUB No. 5828, AR Bank #523): 4 µg/mL (≈ 11.1 µM) | MIC (Enterobacterales; Klebsiella pneumoniae, Klebsiella pneumoniae KUB No. 5829, AR Bank #524): 32 µg/mL (≈ 88.6 µM) | MIC (Enterobacterales; Klebsiella pneumoniae, Klebsiella pneumoniae KUB No. 5830, AR Bank #525): 64 µg/mL (≈ 177 µM) | MIC (Enterobacterales; Kluyvera ascorbata, KUB No. 5641, AR Bank # 144): 2 µg/mL (≈ 5.53 µM) | MIC (Enterobacterales; Morganella morganii, KUB No. 5554, AR Bank# 57): 8 µg/mL (≈ 22.1 µM) | MIC (Enterobacterales; Morganella morganii, KUB No. 5630, AR Bank # 133): 64 µg/mL (≈ 177 µM) | MIC (Enterobacterales; Morganella morganii, Morganella morganii KUB No. 5824, AR Bank #519): 0.12 µg/mL (≈ 0.332 µM) | MIC (Enterobacterales; Proteus mirabilis, KUB No. 5556, AR Bank# 59): 8 µg/mL (≈ 22.1 µM) | MIC (Enterobacterales; Proteus mirabilis, KUB No. 5652, AR Bank # 155): > 64 µg/mL | MIC (Enterobacterales; Proteus mirabilis, KUB No. 5653, AR Bank # 156): 2 µg/mL (≈ 5.53 µM) | MIC (Enterobacterales; Proteus mirabilis, KUB No. 5656, AR Bank # 159): 2 µg/mL (≈ 5.53 µM) | MIC (Enterobacterales; Proteus mirabilis, KUB No. 5773, AR Bank # 377): 16 µg/mL (≈ 44.3 µM) | MIC (Enterobacterales; Proteus mirabilis, KUB No. 5775, AR Bank # 379): 4 µg/mL (≈ 11.1 µM) | MIC (Enterobacterales; Raoultella ornithinolvtica, KUB No. 5631, AR Bank # 134): 0.5 µg/mL (≈ 1.38 µM) | MIC (Enterobacterales; Salmonella enterica, Salmonella Senftenberg, KUB No. 5624, AR Bank # 127): 32 µg/mL (≈ 88.6 µM) | MIC (Enterobacterales; Serratia marcescens, KUB No. 5596, AR Bank # 99): 0.25 µg/mL (≈ 0.692 µM) | MIC (Enterobacterales; Serratia marcescens, KUB No. 5618, AR Bank # 121): 0.12 µg/mL (≈ 0.332 µM) | MIC (Enterobacterales; Serratia marcescens, KUB No. 5619, AR Bank # 122): 0.5 µg/mL (≈ 1.38 µM) | MIC (Enterobacterales; Serratia marcescens, KUB No. 5620, AR Bank # 123): 0.25 µg/mL (≈ 0.692 µM) | MIC (Enterobacterales; Serratia marcescens, KUB No. 5621, AR Bank # 124): 0.5 µg/mL (≈ 1.38 µM) | MIC (Enterobacterales; Serratia marcescens, KUB No. 5627, AR Bank # 130): 0.12 µg/mL (≈ 0.332 µM) | MIC (Enterobacterales; Serratia marcescens, KUB No. 5628, AR Bank # 131): 0.5 µg/mL (≈ 1.38 µM) | MIC (Enterobacterales; Serratia marcescens, Serratia marcescens KUB No. 5825, AR Bank #520): 0.5 µg/mL (≈ 1.38 µM) | MIC (Enterobacterales; Serratia marcescens, Serratia marcescens KUB No. 5826, AR Bank #521): 16 µg/mL (≈ 44.3 µM) | MIC50 (Enterobacterales; carbapenemase-producing Enterobacterales, Metallo-β-lactamase (N = 47), read-out: MIC50): 32 µg/mL (≈ 88.6 µM) | MIC90 (Enterobacterales; carbapenemase-producing Enterobacterales, Metallo-β-lactamase (N = 47), read-out: MIC90): > 64 µg/mL | MIC (A. baumannii; Acinetobacter baumannii, KUB No. 5719, AR Bank #286): 8 µg/mL (≈ 22.1 µM) | MIC (A. baumannii; Acinetobacter baumannii, KUB No. 5720, AR Bank #287): 16 µg/mL (≈ 44.3 µM) | MIC (A. baumannii; Acinetobacter baumannii, KUB No. 5721, AR Bank #288): > 64 µg/mL | MIC (A. baumannii; Acinetobacter baumannii, KUB No. 5722, AR Bank #259): 16 µg/mL (≈ 44.3 µM) | MIC (A. baumannii; Acinetobacter baumannii, KUB No. 5723, AR Bank #290): 8 µg/mL (≈ 22.1 µM) | MIC (A. baumannii; Acinetobacter baumannii, KUB No. 5724, AR Bank #291): 8 µg/mL (≈ 22.1 µM) | MIC (A. baumannii; Acinetobacter baumannii, KUB No. 5725, AR Bank #292): 4 µg/mL (≈ 11.1 µM) | MIC (A. baumannii; Acinetobacter baumannii, KUB No. 5726, AR Bank #293): 4 µg/mL (≈ 11.1 µM) | MIC (A. baumannii; Acinetobacter baumannii, KUB No. 5727, AR Bank #294): 32 µg/mL (≈ 88.6 µM) | MIC (A. baumannii; Acinetobacter baumannii, KUB No. 5728, AR Bank #295): 16 µg/mL (≈ 44.3 µM) | MIC (A. baumannii; Acinetobacter baumannii, KUB No. 5729, AR Bank #296): 32 µg/mL (≈ 88.6 µM) | MIC (A. baumannii; Acinetobacter baumannii, KUB No. 5730, AR Bank #297): 32 µg/mL (≈ 88.6 µM) | MIC (A. baumannii; Acinetobacter baumannii, KUB No. 5731, AR Bank #298): 8 µg/mL (≈ 22.1 µM) | MIC (A. baumannii; Acinetobacter baumannii, KUB No. 5732, AR Bank #299): 64 µg/mL (≈ 177 µM) | MIC (A. baumannii; Acinetobacter baumannii, KUB No. 5733, AR Bank #300): 64 µg/mL (≈ 177 µM) | MIC (A. baumannii; Acinetobacter baumannii, KUB No. 5734, AR Bank #301): 16 µg/mL (≈ 44.3 µM) | MIC (A. baumannii; Acinetobacter baumannii, KUB No. 5735, AR Bank #302): > 64 µg/mL | MIC (A. baumannii; Acinetobacter baumannii, KUB No. 5736, AR Bank #303): 16 µg/mL (≈ 44.3 µM) | MIC (A. baumannii; Acinetobacter baumannii, KUB No. 5737, AR Bank #304): 16 µg/mL (≈ 44.3 µM) | MIC (A. baumannii; Acinetobacter baumannii, KUB No. 5738, AR Bank #305): 16 µg/mL (≈ 44.3 µM) | MIC (A. baumannii; Acinetobacter baumannii, KUB No. 5739, AR Bank #306): 32 µg/mL (≈ 88.6 µM) | MIC (A. baumannii; Acinetobacter baumannii, KUB No. 5740, AR Bank #307): 16 µg/mL (≈ 44.3 µM) | MIC (A. baumannii; Acinetobacter baumannii, KUB No. 5741, AR Bank #308): 16 µg/mL (≈ 44.3 µM) | MIC (A. baumannii; Acinetobacter baumannii, KUB No. 5742, AR Bank #309): 64 µg/mL (≈ 177 µM) | MIC (A. baumannii; Acinetobacter baumannii, KUB No. 5743, AR Bank #310): 32 µg/mL (≈ 88.6 µM) | MIC (A. baumannii; Acinetobacter baumannii, KUB No. 5744, AR Bank #311): 4 µg/mL (≈ 11.1 µM) | MIC (A. baumannii; Acinetobacter baumannii, KUB No. 5745, AR Bank #312): 4 µg/mL (≈ 11.1 µM) | MIC (A. baumannii; Acinetobacter baumannii, KUB No. 5746, AR Bank #313): 8 µg/mL (≈ 22.1 µM) | MIC50 (A. baumannii; Acinetobacter baumannii, 55 isolates of A. baumannii, read-out: MIC50): 16 µg/mL (≈ 44.3 µM) | MIC80 (A. baumannii; Acinetobacter baumannii, 55 isolates of A. baumannii, read-out: MIC80): 32 µg/mL (≈ 88.6 µM) | MIC90 (A. baumannii; Acinetobacter baumannii, 55 isolates of A. baumannii, read-out: MIC90): 64 µg/mL (≈ 177 µM) | Number of isolates at MIC 8 µg/mL (A. baumannii; [1]): 3 | Number of isolates at MIC 16 µg/mL (A. baumannii; [1]): 1
